The record followed here is US20110027251A1, “NOVEL USES FOR 4-PHENYLBUTYRATE (4PBA) AND ITS PHARMACEUTICALLY ACCEPTABLE SALTS” (priority 2008, published 2011).

Holding throughout (type): in vivo
For test [1], the system named is Tg2576 transgenic mice. Put plainly: Morris water maze (spatial learning and memory). An excerpt: (§1) We used Tg2576 transgenic mice with Alzheimer's Disease expressing the 695-aa human APP isoform which contains the double APPswe Swedish mutation [(APP695) Lys670→Asn, Met671→Leu] triggered by a […] hamster promoter. In the Tg2576 transgenic mice suffering from Alzheimer's disease used in the experimental murine model, the Aβ peptide content in the brain accumulates exponentially between their 7th and 12th months of life. […] Therefore 16 months old Tg2576 transgenic mice females were treated once a day intraperitoneally with 200 mg/kg 4PBA or its vehicle during 5 weeks. To do this a 4PBA solution was prepared titrating equimolecular amounts of 4-phenylbutyric acid (Sigma) and sodium hydroxide at a pH: 7.4. A group of normal mice, not genetically altered, from same similar strains and ages was used as control group. All the clinical test procedures were performed according to the European and the Spanish legislation (86/609/CEE; RD 1201/2005).
The Morris water maze was used to evaluate the operational and reference memory functions in Tg2576 transgenic mice treated with 4 PBA as described previously in the literature (Ribe et al., 2005). Groups of Tg2576 female mice treated with 4PBA (n=6), vehicle (n=7), and non-transgenic litter siblings (n=10) were subjected to spatial learning and memory tests using the Morris water maze when they became 16 months old. The maze consisted of a circular pool filled with water at 20° C. The mice received prior training in a pool with a visible platform during 3 consecutive days (8 tests per day) being able to swim towards a platform raised above the water level. The training with hidden platform took 9 consecutive days (4 tests per day) during which all mice were allowed 60 seconds to find the platform submerged 1cm below the water surface. […] All the trials were monitored with a VHS camera and the Watermaze software to analyze escape latencies and the percentage of time of occupation of each pool quadrant during prior tests (using the Ethovision software, Wageninge, Netherlands). […]

Test [2] concerns Aβ40. Put plainly: Aβ40 level in cerebral cortex, sandwich ELISA. The note with it: Tg2576 mice, 200 mg/kg i.p. 5 weeks; compared with vehicle-treated transgenic mice (FIG. 2A).
Text: as §1, with “A group of normal mice, not genetically altered, from same similar strains and ages was used as control group. All the clinical test procedures were performed according to the European and the Spanish legislation (86/609/CEE; RD 1201/2005).” left out
(§2) Mice were sacrificed 24 hours after performing the last test in the Morris water maze. […] Then the levels of Aβ40 and Aβ42 in the cerebral cortex were analyzed by a sandwich type ELISA test.
(§3) The cerebral cortexes were homogenized in a buffer containing 5 M guanidine HCl and 50 mM Tris HCl at a pH=8, protease inhibitors (Roche's CompleteTM Protease Inhibitor Cocktail), and phosphatase inhibitors (0.1 mM Na3VO4, 1 mM NaF). […] Aliquots of the supernatant were freeze-dried at −80° C. and the protein concentration determined using the Bradford method with the Bio-Rad kit. Aβ42 levels were measured with an extra sensitive sandwich-type ELISA kit from Biosource (Camarillo, Calif., USA). […]

Test [3] deals with Aβ42. Put plainly: Aβ42 level in cerebral cortex, sandwich ELISA. Particulars: Tg2576 mice, 200 mg/kg i.p. 5 weeks; compared with vehicle-treated transgenic mice (FIG. 2A).
Text: as §1, with “A group of normal mice, not genetically altered, from same similar strains and ages was used as control group. All the clinical test procedures were performed according to the European and the Spanish legislation (86/609/CEE; RD 1201/2005).” left out
as §2, §3

In test [4] the test system is tau phosphorylated at Ser-202/Thr-205 (AT8). Put plainly: Western blot of phosphorylated tau (AT8) in hippocampus. The note with it: Tg2576 mice, 200 mg/kg i.p. 5 weeks; compared with non-transgenic mice (FIG. 3A). An excerpt:
(§4) We used Tg2576 transgenic mice with Alzheimer's Disease expressing the 695-aa human APP isoform which contains the double APPswe Swedish mutation [(APP695) Lys670→Asn, Met671→Leu] triggered by a […] hamster promoter. In the Tg2576 transgenic mice suffering from Alzheimer's disease used in the experimental murine model, the Aβ peptide content in the brain accumulates exponentially between their 7th and 12th months of life. […] Therefore 16 months old Tg2576 transgenic mice females were treated once a day intraperitoneally with 200 mg/kg 4PBA or its vehicle during 5 weeks. […]
(§5) NaF) spun at 14,000×g, 4° C. for 20 min and the aliquots obtained from the supernatant were then freeze-dried at −80° C. […] Protein concentration was determined in both cases (using the Bradford test from Bio-Rad) and the aliquots stored at −80° C. until further use. […]
(§6) To carry out the Western Blot analyses, protein samples were mixed in buffers having the same volumes (2×Laemmli) resolved in SDS-polyacrylamide gels and transferred to a nitrocellulose membrane. […] After two washings in PBS/Tween-20 or TBS/Tween20 and one washing in PBS or TBS, immunolabelled protein bands were detected using an anti-rabbit or anti-mouse HRP conjugate (Santa Cruz, 1:5000 dilution) followed by a chemiluminescence system (ECL Amersham Biosciences), and autoradiographic exposure to HyperfilmTMECL (Amersham Biosciences). […]
(In general: In western blotting, separated proteins are transferred to a membrane and probed.)

In test [5] the test system is GSK3b phosphorylated at Ser 9. The experiment in a line: Western blot of inactive GSK3b phosphorylated at Ser 9 in hippocampus. Particulars: Tg2576 mice, 200 mg/kg i.p. 5 weeks; compared with vehicle-treated transgenic mice (FIG. 3B).
Text: as §4, §5, §6

Test [6] deals with GRP78. Put plainly: Western blot of GRP78 in hippocampus. The note with it: Tg2576 mice, 200 mg/kg i.p. 5 weeks; compared with non-transgenic mice (FIG. 4).
Text: as §4, §5, §6

Test [7] deals with histone 4 (H4). Put plainly: Western blot of acetylated histone 4 in cortex. Particulars: Tg2576 mice, 200 mg/kg i.p. 5 weeks; cortex extracts (FIG. 5).
Text: as §4, with “weeks. To do this a 4PBA solution was prepared titrating equimolecular amounts of 4-phenylbutyric acid (Sigma) and sodium hydroxide at a pH: 7.4.” for “weeks.”
To carry out the Western Blot analyses, protein samples were mixed in buffers having the same volumes (2×Laemmli) resolved in SDS-polyacrylamide gels and transferred to a nitrocellulose membrane. […] After two washings in PBS/Tween-20 or TBS/Tween20 and one washing in PBS or TBS, immunolabelled protein bands were detected using an anti-rabbit or anti-mouse HRP conjugate (Santa Cruz, 1:5000 dilution) followed by a chemiluminescence system (ECL Amersham Biosciences), and autoradiographic exposure to HyperfilmTMECL (Amersham Biosciences). The signals were quantified using the Scion Image program (Scion Corporation).

The test system of test [8] is GluR1 subunit of the AMPA receptor. The experiment in a line: Western blot of GluR1 in membrane enriched hippocampal protein extracts. Particulars: Tg2576 mice, 200 mg/kg i.p. 5 weeks, vehicle 81.18±9.5%, non-transgenic 100.0±6.5% (FIG. 6).
Text: as §4, §5, §6

Test [9] has as its system PSD95. Put plainly: Western blot of PSD95 in membrane enriched hippocampal protein extracts. The note with it: Tg2576 mice, 200 mg/kg i.p. 5 weeks; membrane enriched hippocampal extracts (FIG. 6).
Text: as §4, §5, §6

Test [10] deals with MAP-2. Put plainly: Quantitative western blot of MAP-2 in hippocampal extracts. Particulars: Tg2576 mice, 200 mg/kg i.p. 5 weeks; untreated Tg2576 54.9±10.7, non-transgenic 100.0±14.9 (FIG. 6).
Text: as §4, §5, §6

Each structure is given as a SMILES string.

With `O=C([O-])CCCc1ccccc1.[Na+]` [4PBA, 4-phenylbutyric acid], the “proficiency in Morris water maze, invisible platform (escape latency)” value in test [1] (16 month old Tg2576 female mice, 200 mg/kg i.p. once a day for 5 weeks, compared with non-transgenic control mice of same age (FIG. 1B)) was “did not differ”. In addition, in [1] (Tg2576 mice, 200 mg/kg i.p. 5 weeks, first training tests with visible platform (FIG. 1A)), the “escape latencies, visible platform training” value is listed as “did not differ significantly”. Further, the “percentage of time spent in the target quadrant (memory retention)” value in test [1] (Tg2576 mice, 200 mg/kg i.p. 5 weeks, platform removed, compared with control group of same age (FIG. 1C)) is reported as “did not differ”. Further, in [2], the “Aβ40 levels in cerebral cortex” value was “no difference was observed”. Further, the “Aβ42 levels in cerebral cortex” value in test [3] is “no difference was observed”. Further, the “phosphorylated tau at the AT8 site in hippocampus” value in test [4] is recorded as “no differences were found”. Further, the “levels of inactive GSK3b phosphorylated at Ser 9 in hippocampus” value in [5] was “higher”. The “GRP78 levels in hippocampus” value in [6] is “did not differ”. In addition, the “acetylation of cortical histone 4 (H4)” value in test [7] is given as “induction of acetylation”. Besides, in test [8], the “expression levels of the GluR1 subunit of the AMPA receptor” value came to 161.37±27.5%. For the same compound, the “expression of PSD95 levels” value in test [9] is listed as “induced significantly”. For the same compound, the MAP-2 expression levels in test [10] stood at 77.7±11.6.
